Laboratory results as given in PMC7555970, “Design, Synthesis and Biological Evaluation of Biphenylglyoxamide-Based Small Molecular Antimicrobial Peptide Mimics as Antibacterial Agents” (International Journal of Molecular Sciences, 2020).
In brackets after ≈: the same amount, converted by molar mass. Where two headings read alike, the source gives them in different places.

Assays:
S. aureus (SA38) = assay: Minimum inhibitory concentration (MIC) assay against S. aureus; assay type: cell-based, Staphylococcus aureus
Description: (§1) The antimicrobial activity of the compounds was evaluated by MIC assay using the procedure described by Clinical and Laboratory Standards Institute (CLSI). A single colony of bacteria was cultured overnight in trypticase soy broth (TSB; Oxoid, Basingstoke, UK) at 37 °C with shaking. The resulting bacterial culture was collected by centrifugation and resuspended in TSB twice. The optical density (OD) of the resulting culture was adjusted to OD660 = 0.1 in TSB (which is equivalent to 10^8 colony forming unit (CFU)/mL bacteria). It was further diluted to 10^6 CFU/mL in TSB. 100 µL of the bacterial solution was then added to wells of a 96-well plate (Costar; Sigma-Aldrich, St Louis, MO, USA) containing 100 µL serially diluted peptide mimic, with final concentration ranging from 1 to 250 µM. Wells with bacteria but no compound were used as negative control while wells with only media were set as blank. The plates were then wrapped with parafilm to prevent evaporation and incubated with shaking at 120 rpm at 37 °C for 18–24 h, and the data were recorded by measuring the OD value at 660 nm using a FLUOstar Omega (BMG Labtech, Mornington, Victoria, Australia) microplate reader. […] Each experiment was performed in triplicate and was repeated in three independent experiments.

[1] = system: MRC-5 normal human lung fibroblasts; assay: MTT toxicity assay; assay type: cell-based; settings: 72 h drug incubation, read-out: IC50 against MRC-5 normal human lung fibroblasts
Description: The toxicity of the compounds was measured using an MTT (3-(4,5-dimethylthiazol-2-yl)-2,5-diphenyltetrazolium bromide) (Sigma Aldrich, St Louis, MO, USA) colorimetric assay against normal human lung fibroblasts MRC-5 cells. The cells were cultured in minimal essential medium (MEM; Sigma Aldrich, St Louis, MO, USA) containing 10% foetal bovine serum (FBS). The cells were maintained at 37 °C in 5% CO2 as an adherent monolayer and was passaged upon reaching confluence by standard cell culture techniques. MRC-5 cells were seeded at 5000 cells/well in 96-well plates to ensure full confluence (quiescence) and left overnight to adhere to the plate wells. The adherent cells were treated with 1–500 µM of compounds by dissolving in DMSO and serially diluting with media. The final concentration of DMSO was 0.5% (v/v). After 72 h drug incubation, […] stock MTT solution (5 mg/mL) was added and the cells were incubated for another 3.5–4 h. MTT solution-containing media was carefully aspirated without displacing the purple crystals from the bottom and […] acid-isopropanol was added to all wells and mixed slowly by shaking with an orbital shaker to dissolve the dark blue crystals. The metabolic activity was detected by spectrophotometric analysis by assessing the read absorbance (590/620 nm) on an EnSight plate reader (PerkinElmer, Waltham, MA, USA) and cell viability was expressed as a percentage of untreated control cells. The determination of IC50 values was performed using GraphPad Prism 6 (GraphPad, San Diego, CA, USA). Each experiment was performed in triplicate and was repeated in three independent experiments.

P. aeruginosa (PA01) = assay: Minimum inhibitory concentration (MIC) assay against P. aeruginosa; assay type: cell-based; settings: Pseudomonas aeruginosa
Description: as §1

[2] = system: established S. aureus biofilms; assay: Biofilm disruption assay (crystal violet staining), S. aureus; assay type: cell-based, Staphylococcus aureus; settings: any tested concentration (1×, 2× and 4× MIC), 24 h treatment
Description: Bacterial cultures (S. aureus and E. coli) were grown in Muller Hinton broth (MHB; Oxoid, Basingstoke, UK) media overnight at 37 °C with shaking at 120 rpm. Cultures were diluted (1:20) in MHB medium and 200 µL aliquots were dispensed to wells in a flat bottom 96-well plate (Costar; Sigma-Aldrich, St Louis, MO, USA). Biofilm was then grown in the 96-well plate at 37 °C overnight. After that, loosely bound cells were washed away with 1x phosphate-buffered saline (PBS) and cultures were then supplemented with different concentrations of test compounds dissolved in DMSO and incubated for a further 24 h with shaking at 120 rpm. Biofilms adhered on the plate substratum were quantified using crystal violet staining as described previously. The experiment was performed in triplicate.

E. coli (K12) = assay: Minimum inhibitory concentration (MIC) assay against E. coli; assay type: cell-based; settings: Escherichia coli
Description: as §1

Row | MIC (S. aureus (SA38); Staphylococcus aureus) | MIC (S. aureus (SA38)) | Compound | IC50 ([1]; Homo sapiens, MRC5, 72 h) | other results
1 | 16 µM |  | CCCCCCCCS(=O)(=O)Nc1ccc(-c2ccc(Cl)cc2)cc1C(=O)C(=O)NCCCN(C)C [Compound 13c, 3-(2-(4’-Chloro-4-(octylsulfonamido)-[1,1’-biphenyl]-3-yl)-2-oxoacetamido)-N,N-dimethylpropan-1-aminium chloride] | 25.5 µM | 
2 |  | > 250 µM | CCCCS(=O)(=O)Nc1ccc(-c2ccccc2)cc1C(=O)C(=O)NCCCN(C)C.Cl [Compound 14a, 3-(2-(4-(Butylsulfonamido)-[1,1’-biphenyl]-3-yl)-2-oxoacetamido)-N,N-dimethylpropan-1-aminium chloride] |  | 
3 | 16 µM |  | CCCCCCCCS(=O)(=O)Nc1ccc(-c2ccc(F)cc2)cc1C(=O)C(=O)NCCCN(C)C [Compound 13b, 3-(2-(4’-Fluoro-4-(octylsulfonamido)-[1,1’-biphenyl]-3-yl)-2-oxoacetamido)-N,N-dimethylpropan-1-aminium chloride] |  | 
4 | 8 µM |  | CCCCCCCCS(=O)(=O)Nc1ccc(-c2ccc(Cl)cc2)cc1C(=O)C(=O)NCCCNC(=N)N.Cl [Compound 22c, 2-(4’-Chloro-4-(octylsulfonamido)-[1,1’-biphenyl]-3-yl)-N-(3-guanidinopropyl)-2-oxoacetamide hydrochloride] | 95 µM | MIC (P. aeruginosa (PA01)): 250 µM; disruption of preformed S. aureus biofilms [2]: failed to disrupt any; MIC (E. coli (K12)): 63 µM
5 |  | 16 µM (≈ 8.31 µg/mL) | CCCCCCCCS(=O)(=O)Nc1ccc(-c2ccc(F)cc2)cc1C(=O)C(=O)NCCCN(C)C [Compound 11b, N-(3-(Dimethylamino)propyl)-2-(4’-fluoro-4-(octylsulfonamido)-[1,1’-biphenyl]-3-yl)-2-oxoacetamide] |  | 
6 | > 250 µM |  | CCCCS(=O)(=O)Nc1ccc(-c2ccccc2)cc1C(=O)C(=O)NCCCN(C)C [Compound 12a, 2-(4-(Butylsulfonamido)-[1,1’-biphenyl]-3-yl)-N-(3-(dimethylamino)propyl)-2-oxoacetamide] |  | 
7 | 16 µM |  | CCCCCCCCS(=O)(=O)Nc1ccc(-c2ccccc2)cc1C(=O)C(=O)NCCCN(C)C [Compound 13a, N,N-Dimethyl-3-(2-(4-(octylsulfonamido)-[1,1’-biphenyl]-3-yl)-2-oxoacetamido)propan-1-aminium chloride] |  | IC50 [1]: 25 µM
8 | 32 µM |  | C[N+](C)(C)CCCNC(=O)C(=O)c1cc(-c2ccccc2)ccc1NC(=O)c1ccc2ccccc2c1 [Compound 27, 3-(2-(4-(2-Naphthamido)-[1,1’-biphenyl]-3-yl)-2-oxoacetamido)-N,N,N-trimethylpropan-1-aminium iodide] |  | 
9 |  | 24 µM (≈ 12 µg/mL) | CCCCCCCCS(=O)(=O)Nc1ccc(-c2ccccc2)cc1C(=O)C(=O)NCCCN(C)C [Compound 11a, N-(3-(Dimethylamino)propyl)-2-(4-(octylsulfonamido)-[1,1’-biphenyl]-3-yl)-2-oxoacetamide] | < 30 µM | IC50 [1]: 28.2 µM
10 | 16 µM |  | CCCCCCCCS(=O)(=O)Nc1ccc(-c2ccc(F)cc2)cc1C(=O)C(=O)NCCC[N+](C)(C)C [Compound 15b, 3-(2-(4’-Fluoro-4-(octylsulfonamido)-[1,1’-biphenyl]-3-yl)-2-oxoacetamido)-N,N,N-trimethylpropan-1-aminium iodide] | 190 µM | MIC (P. aeruginosa (PA01)): 63 µM; MIC (E. coli (K12)): 32 µM
11 | 32 µM |  | CCCCCCCCS(=O)(=O)Nc1ccc(CCCC)cc1C(=O)C(=O)NCCCN(C)C [Compound 13e, 3-(2-(5-Butyl-2-(octylsulfonamido)phenyl)-2-oxoacetamido)-N,N-dimethylpropan-1-aminium chloride] | 23.6 µM | 
12 | 16 µM |  | CCCCCCCCS(=O)(=O)Nc1ccc(-c2ccccc2)cc1C(=O)C(=O)NCCC[N+](C)(C)C [Compound 15a, N,N,N-Trimethyl-3-(2-(4-(octylsulfonamido)-[1,1’-biphenyl]-3-yl)-2-oxoacetamido)propan-1-aminium iodide] | 50.7 µM | MIC (P. aeruginosa (PA01)): 125 µM; MIC (E. coli (K12)): 32 µM
13 | > 250 µM |  | CCCCS(=O)(=O)Nc1ccc(-c2ccccc2)cc1C(=O)C(=O)NCCC[N+](C)(C)C [Compound 16a, 3-(2-(4-(Butylsulfonamido)-[1,1’-biphenyl]-3-yl)-2-oxoacetamido)-N,N,N-trimethylpropan-1-aminium iodide] |  | 
14 |  | 16 µM (≈ 8.83 µg/mL) | CCCCCCCCS(=O)(=O)Nc1ccc(-c2ccc3ccccc3c2)cc1C(=O)C(=O)NCCCN(C)C [Compound 11d, N-(3-(Dimethylamino)propyl)-2-(5-(naphthalen-2-yl)-2-(octylsulfonamido)phenyl)-2-oxoacetamide] |  | 
15 |  | > 250 µM | CN(C)CCCNC(=O)C(=O)c1cc(-c2ccccc2)ccc1NC(=O)c1ccc2ccccc2c1.Cl [Compound 26, 3-(2-(4-(2-Naphthamido)-[1,1’-biphenyl]-3-yl)-2-oxoacetamido)-N,N-dimethylpropan-1-aminium chloride] |  | 
16 | 16 µM |  | CCCCCCCCS(=O)(=O)Nc1ccc(CCCC)cc1C(=O)C(=O)NCCC[N+](C)(C)C [Compound 15e, 3-(2-(5-Butyl-2-(octylsulfonamido)phenyl)-2-oxoacetamido)-N,N,N-trimethylpropan-1-aminium iodide] | 101 µM | MIC (P. aeruginosa (PA01)): > 250 µM; MIC (E. coli (K12)): > 250 µM
17 |  | 16 µM (≈ 8.58 µg/mL) | CCCCCCCCS(=O)(=O)Nc1ccc(-c2ccc(Cl)cc2)cc1C(=O)C(=O)NCCCN(C)C [Compound 11c, 2-(4’-Chloro-4-(octylsulfonamido)-[1,1’-biphenyl]-3-yl)-N-(3-(dimethylamino)propyl)-2-oxoacetamide] |  | 
18 | 8 µM |  | CCCCCCCCS(=O)(=O)Nc1ccc(-c2ccc3ccccc3c2)cc1C(=O)C(=O)NCCCN(C)C [Compound 13d, N,N-Dimethyl-3-(2-(5-(naphthalen-2-yl)-2-(octylsulfonamido)phenyl)-2-oxoacetamido)propan-1-aminium chloride] |  | IC50 [1]: 19.7 µM
19 |  | 63 µM (≈ 30.3 µg/mL) | CCCCCCCCS(=O)(=O)Nc1ccc(CCCC)cc1C(=O)C(=O)NCCCN(C)C [Compound 11e, 2-(5-Butyl-2-(octylsulfonamido)phenyl)-N-(3-(dimethylamino)propyl)-2-oxoacetamide] |  | 
